Laboratory results published in patent US20240041042A1, “1-(PYRIDYL)-5-AZINYLPYRAZOLE DERIVATIVES, AND THEIR USE FOR CONTROL OF UNDESIRED PLANT GROWTH” (Bayer Aktiengesellschaft, priority 2020, published 2024).
Read-outs that look alike come from different tables or passages of the source.

Tests used:
Type in all cases: in vivo
[1] = tested on: Echinochloa crus-galli (ECHCG); test: Post-emergence herbicidal action against ECHCG
Procedure, shortened: (§1)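 Doses of 320 g/ha or lower, suffixes a, b and c marking different dosages, were applied post-emergence at the one-leaf stage in 600 l/ha water with 0.5% additive. Damage was assessed visually after about 3 weeks in the greenhouse.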

[2] = tested on: Alopecurus myosuroides (ALOMY); test: Pre-emergence herbicidal action against ALOMY; conditions: scored visually after about 3 weeks, 100% = plants have died
Procedure, shortened: (§2)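 Pre-emergence soil-surface spray, WP/EC formulation, 0.5% additive, 600 l/ha water, rates of 320 g/ha or lower. Greenhouse, ~3 wk. Visual score, % of untreated control (100% = plants dead, 0% = like control).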

[3] = tested on: Digitaria sanguinalis (DIGSA); test: Post-emergence herbicidal action against DIGSA; conditions: 80 g/ha, visual rating about 3 weeks after treatment
Procedure, shortened: as §1

[4] = tested on: Setaria viridis (SETVI); test: Post-emergence herbicidal action against SETVI
Procedure, shortened: as §1

[5] = tested on: Abutilon theophrasti (ABUTH); test: Post-emergence herbicidal action against ABUTH; conditions: visual rating about 3 weeks after treatment vs untreated controls (100% = plants have died, 0% = like control plants)
Procedure, shortened: as §1

[6] = tested on: Avena fatua (AVEFA); test: Pre-emergence herbicidal action against AVEFA; conditions: 320 g/ha, visual scoring after about 3 weeks vs untreated controls
Procedure, shortened: as §2

[7] = tested on: Alopecurus myosuroides (ALOMY); test: Post-emergence herbicidal action against ALOMY; conditions: 80 g/ha, visual rating about 3 weeks after treatment vs untreated controls (100% = plants have died, 0% = like control plants)
Procedure, shortened: as §1

[8] = tested on: Echinochloa crus-galli (ECHCG); test: Pre-emergence herbicidal action against ECHCG; conditions: dosage 320 g/ha
Procedure, shortened: as §2

[9] = tested on: Abutilon theophrasti (ABUTH); test: Pre-emergence herbicidal action against ABUTH; conditions: Dosage column 320 g/ha (title prints 3200 g/ha); scored visually after about 3 weeks; 100% = plants have died
Procedure, shortened: as §2

[10] = tested on: Polygonum convolvulus (POLCO); test: Pre-emergence herbicidal action against POLCO
Procedure, shortened: as §2

[11] = tested on: Viola tricolor (VIOTR); test: Post-emergence herbicidal action against VIOTR
Procedure, shortened: as §1

[12] = tested on: Pharbitis purpurea (PHBPU); test: Post-emergence herbicidal action against PHBPU
Procedure, shortened: as §1

[13] = tested on: Zea mays (ZEAMX); conditions: pre-emergence, 80 g/ha, crop plant compatibility, in comparison to untreated controls
Procedure, shortened: (§3)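 Crop injury rated visually in percent against untreated plants roughly 3 weeks after treatment (0% no effect, 100% plants dead). Compounds, as WP or EC with 0.5% additive in 600 l/ha water, were applied to the covering soil right after sowing; greenhouse growth. Suffixes a, b, c denote different dosages.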

[14] = tested on: Digitaria sanguinalis (DIGSA); test: Pre-emergence herbicidal action against DIGSA
Procedure, shortened: as §2

[15] = tested on: Pharbitis purpurea (PHBPU); test: Pre-emergence herbicidal action against PHBPU
Procedure, shortened: as §2

[16] = tested on: Amaranthus retroflexus (AMARE); test: Pre-emergence herbicidal action against AMARE; conditions: visual scoring after about 3 weeks vs untreated controls
Procedure, shortened: as §2

[17] = tested on: Amaranthus retroflexus (AMARE); test: Post-emergence herbicidal action against AMARE
Procedure, shortened: as §1

[18] = tested on: Lolium rigidum (LOLRI); test: Pre-emergence herbicidal action against LOLRI; conditions: dosage 320 g/ha
Procedure, shortened: as §2

[19] = tested on: Viola tricolor (VIOTR); test: Pre-emergence herbicidal action against VIOTR
Procedure, shortened: as §2

[20] = tested on: Verconica persica (VERPE); test: Pre-emergence herbicidal action against VERPE; conditions: dosage 320 g/ha
Procedure, shortened: as §2

[21] = tested on: Setaria viridis (SETVI); test: Pre-emergence herbicidal action against SETVI
Procedure, shortened: as §2

[22] = tested on: Matricaria inodora (MATIN); test: Pre-emergence herbicidal action against MATIN
Procedure, shortened: as §2

[23] = tested on: Oryza sativa (ORYSA); conditions: crop plant compatibility
Procedure, shortened: (§4)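 One-leaf-stage crops (2–3 wk post-sowing, sandy loam, greenhouse) sprayed on green parts; 0.5% additive, 600 l/ha water. Rated by eye ~3 wk later, % vs untreated; suffixes a/b/c mark different dosages.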

[24] = tested on: Zea mays (ZEAMX); conditions: 20 g/ha, ZEAMX, effect in comparison to untreated controls
Procedure, shortened: as §4

[25] = tested on: Polygonum convolvulus (POLCO); test: Post-emergence herbicidal action against POLCO
Procedure, shortened: as §1

[26] = tested on: Triticum aestivum (TRZAS); conditions: pre-emergence, 80 g/ha, crop plant compatibility, in comparison to untreated controls
Procedure, shortened: as §3

[27] = tested on: Lolium rigidum (LOLRI); test: Post-emergence herbicidal action against LOLRI; conditions: dosage 320 g/ha
Procedure, shortened: as §1

[28] = tested on: Avena fatua (AVEFA); test: Post-emergence herbicidal action against AVEFA; conditions: 320 g/ha, visual rating about 3 weeks after treatment
Procedure, shortened: as §1

[29] = tested on: Matricaria inodora (MATIN); test: Post-emergence herbicidal action against MATIN; conditions: dosage 320 g/ha
Procedure, shortened: as §1

[30] = tested on: Verconica persica (VERPE); test: Post-emergence herbicidal action against VERPE
Procedure, shortened: as §1

[31] = tested on: Triticum aestivum (TRZAS); conditions: crop plant compatibility, 80 g/ha, effect vs untreated controls
Procedure, shortened: as §4

[32] = 80 g/ha, visual rating about 3 weeks after treatment vs untreated controls (100% = plants have died, 0% = like control plants)
[33] = 80 g/ha, effect in comparison to untreated controls

CN(C)S(=O)(=O)NC(=O)COc1nn(-c2ncccc2F)c(-c2ccc(F)nc2)c1Br [Example I-36]
0%: Pre-emergence action against ZEAMX in % [13] | Post-emergence action against ORYSA in % ([23]; 20 g/ha, effect vs untreated controls) | Post-emergence action against ORYSA in % [23, 33]
80%: Post-emergence action against SETVI in % ([4]; dosage 80 g/ha) | Post-emergence action against ABUTH in % ([5]; 80 g/ha) | Pre-emergence action against ABUTH [9] | Pre-emergence action against POLCO in % ([10]; dosage 80 g/ha) | Post-emergence action against PHBPU in % ([12]; dosage 80 g/ha) | Post-emergence action against AMARE in % [17, 32] | Post-emergence action against POLCO in % ([25]; dosage 80 g/ha)
20%: Post-emergence action against ZEAMX in % (crop plant compatibility) [24]
100%: Pre-emergence action against ALOMY ([2]; 80 g/ha) | Pre-emergence action against ALOMY ([2]; 320 g/ha) | Pre-emergence action against ECHCG in % [8] | Pre-emergence action against DIGSA in % ([14]; 80 g/ha, visual scoring after about 3 weeks vs untreated controls) | Pre-emergence action against DIGSA in % ([14]; dosage 320 g/ha) | Pre-emergence action against PHBPU in % ([15]; dosage 320 g/ha) | Pre-emergence action against AMARE in % ([16]; 320 g/ha) | Pre-emergence action against LOLRI in % [18] | Pre-emergence action against VIOTR in % ([19]; 320 g/ha, Viola tricolor) | Pre-emergence action against VIOTR in % ([19]; dosage 80 g/ha) | Pre-emergence action against VERPE in % [20] | Pre-emergence action against SETVI in % ([21]; dosage 80 g/ha) | Pre-emergence action against SETVI in % ([21]; dosage 320 g/ha) | Pre-emergence action against MATIN in % ([22]; dosage 320 g/ha)
90%: Post-emergence action against ECHCG in % ([1]; dosage 80 g/ha) | Post-emergence action against DIGSA in % [3] | Pre-emergence action against AVEFA in % [6] | Post-emergence action against ALOMY in % [7] | Pre-emergence action against POLCO in % ([10]; dosage 320 g/ha) | Post-emergence action against VIOTR in % ([11]; 80 g/ha)

O=C(O)CSc1nn(-c2ccccn2)c(-c2cncc(F)c2)c1Cl [Example I-217]
80%: Post-emergence action against SETVI in % ([4]; dosage 80 g/ha) | Post-emergence action against ABUTH in % ([5]; 80 g/ha) | Pre-emergence action against POLCO in % ([10]; dosage 320 g/ha) | Post-emergence action against VIOTR in % ([11]; 80 g/ha) | Post-emergence action against LOLRI in % [27] | Pre-emergence action against AMARE in % ([16]; 80 g/ha) | Post-emergence action against MATIN in % [29] | Pre-emergence action against MATIN in % ([22]; dosage 80 g/ha) | Post-emergence action against POLCO in % ([25]; dosage 80 g/ha) | Post-emergence action against POLCO in % ([25]; dosage 320 g/ha)
90%: Post-emergence action against ECHCG in % ([1]; dosage 80 g/ha) | Post-emergence action against ECHCG in % ([1]; dosage 320 g/ha) | Post-emergence action against SETVI in % ([4]; dosage 320 g/ha) | Post-emergence action against ABUTH in % ([5]; 320 g/ha) | Pre-emergence action against ECHCG in % [8] | Post-emergence action against VIOTR in % ([11]; 320 g/ha) | Pre-emergence action against PHBPU in % ([15]; dosage 320 g/ha) | Post-emergence action against AMARE in % [17, 32] | Post-emergence action against AMARE in % ([17]; 320 g/ha, visual rating about 3 weeks after treatment) | Pre-emergence action against VIOTR in % ([19]; 320 g/ha, Viola tricolor) | Post-emergence action against AVEFA in % [28] | Pre-emergence action against SETVI in % ([21]; dosage 320 g/ha) | Pre-emergence action against MATIN in % ([22]; dosage 320 g/ha)
100%: Pre-emergence action against AMARE in % ([16]; 320 g/ha) | Pre-emergence action against LOLRI in % [18]
0%: Pre-emergence action against TRZAS in % [26] | Post-emergence action against ORYSA in % [23, 33]

COC(=O)CCOC(=O)COc1nn(-c2ncccc2C(F)(F)F)c(-c2cncc(F)c2)c1Br [Example I-160]
100%: Pre-emergence action against VIOTR in % ([19]; 320 g/ha, Viola tricolor)
0%: Post-emergence action against ORYSA in % [23, 33]
80%: Post-emergence action against SETVI in % ([4]; dosage 320 g/ha) | Post-emergence action against VERPE in % ([30]; dosage 80 g/ha) | Pre-emergence action against PHBPU in % ([15]; dosage 80 g/ha) | Pre-emergence action against AMARE in % ([16]; 320 g/ha) | Pre-emergence action against MATIN in % ([22]; dosage 320 g/ha)
20%: Pre-emergence action against TRZAS in % [26] | Post-emergence action against TRZAS in % [31]
90%: Pre-emergence action against ECHCG in % [8] | Pre-emergence action against POLCO in % ([10]; dosage 320 g/ha) | Post-emergence action against VERPE in % ([30]; 320 g/ha, VERPE) | Post-emergence action against PHBPU in % ([12]; dosage 320 g/ha) | Pre-emergence action against PHBPU in % ([15]; dosage 320 g/ha) | Pre-emergence action against VIOTR in % ([19]; dosage 80 g/ha) | Pre-emergence action against VERPE in % [20]
